Source: patent publication US10315996B2, “ROR gamma (RORγ) modulators” (LEAD PHARMA HOLDING B.V., priority 2015, dated 2019)

Biological target: T1, RORγ (Homo sapiens, UniProt P51449)
T1 construct: expressed in transfected cells; host or cells: 293FT cells (Invitrogen), expression vector pFN26A (Promega)
T1 sequence (P51449 269-508 limits assumed): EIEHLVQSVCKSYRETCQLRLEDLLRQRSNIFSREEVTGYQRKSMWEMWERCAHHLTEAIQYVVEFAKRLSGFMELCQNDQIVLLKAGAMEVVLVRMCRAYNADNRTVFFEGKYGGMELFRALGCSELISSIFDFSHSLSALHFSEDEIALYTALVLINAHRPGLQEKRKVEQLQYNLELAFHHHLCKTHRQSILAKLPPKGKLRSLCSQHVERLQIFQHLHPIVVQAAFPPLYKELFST
Assay: RORγ GAL4 reporter gene assay
Type: cell-based
Conditions: inhibition of RORγ activity, GAL4-RORγ-LBD luciferase reporter in 293FT cells, overnight incubation; read-out: mean pIC50 (converted)
Protocol: Example inhibitors 1-166 were tested for their ability to inhibit RORγ activity in a RORγ GAL4 reporter gene assay. The assay procedure and results are described below.
RORγ GAL4 Reporter Gene Assay Description
A GAL4 one-hybrid reporter system employing luciferase readout was established to determine inhibition of RORγ in 293FT cells. The RORγ ligand-binding domain (LBD) was fused to the yeast GAL4 DNA binding domain (DBD) and placed under the control of the human cytomegalovirus (CMV) immediate early promoter, using expression vector pFN26A (Promega) and standard recombinant DNA cloning methods. To serve as a control in the assay, a similar vector was generated in which the GAL4-DBD was fused to Herpes simplex virus protein 16 (VP16), a constitutive transcriptional activator.
To monitor the inhibitory effect of compounds on RORγ, a transcriptional reporter construct was used. The pGL4.35 vector (Promega) contains nine copies of the GAL4 Upstream Activator Sequence (UAS). This sequence drives the transcription of the luciferase reporter gene luc2P in response to binding of a fusion protein containing the GAL4 DNA binding domain, as for example expressed by the GAL4-RORγ-LBD and GAL4-VP16 expression vectors described above. To allow a GAL4 fusion protein to drive the expression of the luciferase reporter, the pGL4.35 expression vector and the appropriate GAL4 fusion protein expression vector were bulk transfected in the 293FT cells using standard transfection techniques.
The day after transfection, cells were plated into 96 well plates, test compound was added and the plates were incubated overnight. Subsequently, the firefly luciferase activity was quantified using luciferase detection reagent and luminescence readout.
Detailed Assay Description
293FT cells (Invitrogen) were transfected with a GAL4 fusion protein expression vector (as described above) and the transcriptional reporter construct (pGL4.35, Promega). 60 μL of TransIT-293 transfection reagent (Mirus Bio) was added drop wise to 1500 μl Opti-MEM I Reduced Serum Medium (Invitrogen) and incubated at room temperature (RT) for 5 to 20 minutes. 1500 μL of this reagent mixture was added to 5 μg of GAL4 fusion protein expression vector and 5 μg of the transcriptional reporter construct, and incubated at RT for 20 minutes.
To harvest 293FT cells from a T75 flask, first the culture medium was taken off the cells. Subsequently, the cells were washed with Phosphate Buffered Saline (PBS) (Lonza), after which the PBS was removed. To dissociate the cells, 1 ml of TrypLE Express (Invitrogen) was added to the flask, followed by incubation at RT until the cells visually started to detach. Cells were collected in 5 mL of assay medium (DMEM culture medium (Lonza), 10% dialyzed FBS (Invitrogen) and Pen/Strep (Lonza)) to achieve a single cell suspension. 10×10^6 cells were spun down and re-suspended in 10 mL of assay medium. Subsequently, the cell suspension was added to the transfection mix tube, and then transferred as a whole to a T75 flask (Greiner), followed by overnight (16-24 hours) incubation at 37° C. and 5% CO2.
For compound screening, the cells were harvested (as described above) and counted. 13×10^6 cells were spun down, the supernatant was aspirated and the cells were re-suspended in 17.3 mL of assay medium obtaining a cell suspension of 0.75×10^6 cells/mL. 80 μL of cell suspension (60,000 cells) was plated per well into a white, flat bottom, tissue culture treated, 96 well screening plates (Greiner).
Test compounds were diluted, starting from a 10 mM dimethylsulfoxide (DMSO) stock solution, to serial dilutions in DMSO at 500× the final test concentration. Subsequently, these solutions were diluted to 5× the final test concentration in two 10-fold-dilution steps in assay medium. The final DMSO concentration of the 5× test compound solution was 1%. […]

SMILES	IC50
CCCNC(=O)c1ccc(NC(=O)Cc2ccc(S(=O)(=O)CC3CC3)cc2)cc1 [Example 1, 4-[2-(4-cyclopropylmethanesulfonylphenyl)acetamido]-N-propylbenzamide]	≤ 1000 nM
CCNC(=O)c1ccc(NC(=O)Cc2ccc(S(=O)(=O)CC3CC3)cc2)cc1 [Example 2, 4-[2-(4-cyclopropylmethanesulfonylphenyl)acetamido]-N-ethylbenzamide]	≤ 1000 nM
CN(C(=O)c1ccc(NC(=O)Cc2ccc(S(=O)(=O)CC3CC3)cc2)cc1)c1ccccc1 [Example 3, 4-[2-(4-cyclopropylmethanesulfonylphenyl)acetamido]-N-methyl-N-phenylbenzamide]	≤ 10 nM
CN(Cc1ccccc1)C(=O)c1ccc(NC(=O)Cc2ccc(S(=O)(=O)CC3CC3)cc2)cc1 [Example 5, N-benzyl-4-[2-(4-cyclopropylmethanesulfonylphenyl)acetamido]-N-methylbenzamide]	≤ 100 nM
CCCN(C)C(=O)c1ccc(NC(=O)Cc2ccc(S(=O)(=O)CC3CC3)cc2)cc1 [Example 7, 4-[2-(4-cyclopropylmethanesulfonylphenyl)acetamido]-N-methyl-N-propylbenzamide]	≤ 1000 nM
CC(C)CN(C)C(=O)c1ccc(NC(=O)Cc2ccc(S(=O)(=O)CC3CC3)cc2)cc1 [Example 8, 4-[2-(4-cyclopropylmethanesulfonylphenyl)acetamido]-N-methyl-N-(2-methylpropyl)benzamide]	≤ 1000 nM
CN(CCc1ccccc1)C(=O)c1ccc(NC(=O)Cc2ccc(S(=O)(=O)CC3CC3)cc2)cc1 [Example 10, 4-[2-(4-cyclopropylmethanesulfonylphenyl)acetamido]-N-methyl-N-(2-phenylethyl)benzamide]	≤ 100 nM
CC(C)(C)NC(=O)c1ccc(NC(=O)Cc2ccc(S(=O)(=O)CC3CC3)cc2)cc1 [Example 11, N-tert-butyl-4-[2-(4-cyclopropylmethanesulfonylphenyl)acetamido]benzamide]	≤ 1000 nM
O=C(Cc1ccc(S(=O)(=O)CC2CC2)cc1)Nc1ccc(C(=O)N(Cc2ccccc2)Cc2ccccc2)cc1 [Example 12, N,N-dibenzyl-4-[2-(4-cyclopropylmethanesulfonylphenyl)acetamido]benzamide]	≤ 100 nM
O=C(Cc1ccc(S(=O)(=O)CC2CC2)cc1)Nc1ccc(C(=O)NCc2ccccc2)cc1 [Example 13, N-benzyl-4-[2-(4-cyclopropylmethanesulfonylphenyl)acetamido]benzamide]	≤ 1000 nM
CC(NC(=O)c1ccc(NC(=O)Cc2ccc(S(=O)(=O)CC3CC3)cc2)cc1)c1ccccc1 (stereo not shown) [Example 14, 4-[2-(4-cyclopropylmethanesulfonylphenyl)acetamido]-N-(1-phenylethyl)benzamide]	≤ 100 nM
CC(C)CN(CC(C)C)C(=O)c1ccc(NC(=O)Cc2ccc(S(=O)(=O)CC3CC3)cc2)cc1 [Example 15, 4-[2-(4-cyclopropylmethanesulfonylphenyl)acetamido]-N,N-bis(2-methylpropyl)benzamide]	≤ 100 nM
CCN(C(=O)c1ccc(NC(=O)Cc2ccc(S(=O)(=O)CC3CC3)cc2)cc1)c1ccccc1 [Example 16, 4-[2-(4-cyclopropylmethanesulfonylphenyl)acetamido]-N-ethyl-N-phenylbenzamide]	≤ 10 nM
CN(C(=O)c1ccc(NC(=O)Cc2ccc(S(=O)(=O)CC3CC3)cc2)cc1)c1ccccn1 [Example 17, 4-[2-(4-cyclopropylmethanesulfonylphenyl)acetamido]-N-methyl-N-(pyridin-2-yl)benzamide]	≤ 100 nM
C[C@@H](c1ccccc1)N(C)C(=O)c1ccc(NC(=O)Cc2ccc(S(=O)(=O)CC3CC3)cc2)cc1 [Example 18, 4-[2-(4-cyclopropylmethanesulfonylphenyl)acetamido]-N-methyl-N-[(1S)-1-phenylethyl]benzamide]	≤ 100 nM
CCCN(C(=O)c1ccc(NC(=O)Cc2ccc(S(=O)(=O)CC3CC3)cc2)cc1)c1ccccc1 [Example 19, 4-[2-(4-cyclopropylmethanesulfonylphenyl)acetamido]-N-phenyl-N-propylbenzamide]	≤ 10 nM
CCCN(C(=O)c1ccc(NC(=O)Cc2ccc(S(=O)(=O)CC3CC3)cc2)cc1)c1cccnc1 [Example 20, 4-[2-(4-cyclopropylmethanesulfonylphenyl)acetamido]-N-propyl-N-(pyridin-3-yl)benzamide]	≤ 10 nM
CCCN(Cc1ccccc1)C(=O)c1ccc(NC(=O)Cc2ccc(S(=O)(=O)CC3CC3)cc2)cc1 [Example 21, N-benzyl-4-[2-(4-cyclopropylmethanesulfonylphenyl)acetamido]-N-propylbenzamide]	≤ 10 nM
CCCN(C(=O)c1ccc(NC(=O)Cc2ccc(S(=O)(=O)NC3CC3)cc2)cc1)c1ccccc1 [Example 22, 4-{2-[4-(cyclopropylsulfamoyl)phenyl]acetamido}-N-phenyl-N-propylbenzamide]	≤ 100 nM
CCCN(Cc1ccccc1)C(=O)c1ccc(NC(=O)Cc2ccc(S(=O)(=O)NC3CC3)cc2)cc1 [Example 23, N-benzyl-4-{2-[4-(cyclopropylsulfamoyl)phenyl]acetamido}-N-propylbenzamide]	≤ 1000 nM
O=C(Cc1ccc(S(=O)(=O)NC2CC2)cc1)Nc1ccc(C(=O)N(Cc2ccccc2)Cc2ccccc2)cc1 [Example 24, N,N-dibenzyl-4-{2-[4-(cyclopropylsulfamoyl)phenyl]acetamido}benzamide]	≤ 100 nM
CCOC(=O)C1CCCN(C(=O)c2ccc(NC(=O)Cc3ccc(S(=O)(=O)CC4CC4)cc3)cc2)C1 (stereo not shown) [Example 25, ethyl 1-{4-[2-(4-cyclopropylmethanesulfonylphenyl)acetamido]benzoyl}piperidine-3-carboxylate]	≤ 1000 nM
CN(C(=O)c1ccc(NC(=O)Cc2ccc(S(=O)(=O)CC3CC3)cc2)cc1)C(C)(C)C [Example 26, N-tert-butyl-4-[2-(4-cyclopropylmethanesulfonylphenyl)acetamido]-N-methylbenzamide]	≤ 1000 nM
O=C(Cc1ccc(S(=O)(=O)CC2CC2)cc1)Nc1ccc(C(=O)N(C2CCC2)C2CCC2)cc1 [Example 27, N,N-dicyclobutyl-4-[2-(4-cyclopropylmethanesulfonylphenyl)acetamido]benzamide]	≤ 100 nM
CC1CCCCN1C(=O)c1ccc(NC(=O)Cc2ccc(S(=O)(=O)CC3CC3)cc2)cc1 (stereo not shown) [Example 28, 2-(4-cyclopropylmethanesulfonylphenyl)-N-[4-(2-methylpiperidine-1-carbonyl)phenyl]acetamide]	≤ 1000 nM
CCN(C(=O)c1ccc(NC(=O)Cc2ccc(S(=O)(=O)CC3CC3)cc2)cc1)c1ccc(C)cc1 [Example 29, 4-[2-(4-cyclopropylmethanesulfonylphenyl)acetamido]-N-ethyl-N-(4-methylphenyl)benzamide]	≤ 10 nM
CCN(C(=O)c1ccc(NC(=O)Cc2ccc(S(=O)(=O)CC3CC3)cc2)cc1)c1cccc(C(=O)OC)c1 [Example 30, methyl 3-{N-ethyl-4-[2-(4-cyclopropylmethanesulfonylphenyl)acetamido]benzamido}benzoate]	≤ 100 nM
CCN(C(=O)c1ccc(NC(=O)Cc2ccc(S(=O)(=O)CC3CC3)cc2)cc1)c1cccc(C)c1 [Example 31, 4-[2-(4-cyclopropylmethanesulfonylphenyl)acetamido]-N-ethyl-N-(3-methylphenyl)benzamide]	≤ 10 nM
